Results reported in US8039514B2, “Sulfonamide compounds and use thereof” (Asahi Kasei Pharma Corporation, priority 2008, dated 2011).

molecular target: T1, human calcium-sensing receptor (CaSR) (Homo sapiens, UniProt P41180); test: intracellular Ca assay, CaSR antagonist activity in HEK293/hCaSR cells; format: cell-based; conditions: Fura2-AM, inhibition of response to calcium chloride ligand solution, read-out: IC50 values according to the intracellular Ca assay (CaSR antagonist activity)
T1 construct: expressed in transfected cells
T1 sequence (P41180 20-1078): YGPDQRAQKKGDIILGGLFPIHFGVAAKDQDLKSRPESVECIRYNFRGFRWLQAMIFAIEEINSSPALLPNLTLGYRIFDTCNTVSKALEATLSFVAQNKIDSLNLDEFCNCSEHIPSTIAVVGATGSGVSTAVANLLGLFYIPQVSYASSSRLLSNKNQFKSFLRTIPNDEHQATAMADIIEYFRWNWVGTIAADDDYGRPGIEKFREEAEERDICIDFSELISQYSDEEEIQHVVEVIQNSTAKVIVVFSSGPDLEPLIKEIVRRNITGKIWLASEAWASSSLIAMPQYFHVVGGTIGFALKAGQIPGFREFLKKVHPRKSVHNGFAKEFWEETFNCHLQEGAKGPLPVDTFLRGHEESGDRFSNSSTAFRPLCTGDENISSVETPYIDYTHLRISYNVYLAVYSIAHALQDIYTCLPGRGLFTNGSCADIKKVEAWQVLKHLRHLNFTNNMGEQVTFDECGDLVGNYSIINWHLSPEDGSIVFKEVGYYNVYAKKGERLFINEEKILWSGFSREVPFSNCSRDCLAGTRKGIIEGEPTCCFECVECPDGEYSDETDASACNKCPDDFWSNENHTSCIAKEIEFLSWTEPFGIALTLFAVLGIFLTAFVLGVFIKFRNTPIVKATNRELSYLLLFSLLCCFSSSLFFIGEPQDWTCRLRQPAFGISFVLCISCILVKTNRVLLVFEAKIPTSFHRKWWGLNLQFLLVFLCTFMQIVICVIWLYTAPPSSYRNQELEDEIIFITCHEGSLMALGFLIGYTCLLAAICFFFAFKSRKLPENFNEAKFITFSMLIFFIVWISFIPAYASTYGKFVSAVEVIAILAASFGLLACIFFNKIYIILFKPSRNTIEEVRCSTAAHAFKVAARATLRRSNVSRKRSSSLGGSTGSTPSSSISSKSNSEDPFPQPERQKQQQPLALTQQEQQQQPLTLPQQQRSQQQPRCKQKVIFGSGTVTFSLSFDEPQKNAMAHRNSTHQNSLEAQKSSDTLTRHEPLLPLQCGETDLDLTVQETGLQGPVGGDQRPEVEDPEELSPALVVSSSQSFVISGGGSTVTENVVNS
Summary of the method: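 HEK293/hCaSR cells were loaded with Fura2-AM and pre-incubated with compound for 160 s at 37° C in HEPES buffer (pH 7.4, 0.8 mM CaCl2), then challenged with calcium ligand solution. Read-out was the peak 340/380 nm fluorescence ratio; inhibition is relative to no-compound (0%) and no-calcium-ligand (100%) controls.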

IC50 [nM] | SMILES
≤ 300 | CCc1cc(-c2ccc(CCC(=O)O)cc2Cl)ccc1S(=O)(=O)N(C)C[C@H](O)CNC(C)(C)CC1Cc2ccccc2C1 [Exp. 5-16, (R)-3-(2-chloro-4′-(N-(3-(1-(2,3-dihydro-1H-inden-2-yl)-2-methylpropan-2-ylamino)-2-hydroxypropyl)-N-methylsulfamoyl)-3′-ethylbiphenyl-4-yl)propionic acid]
≤ 300 | CN(C[C@H](O)CNC(C)(C)CC1Cc2ccccc2C1)S(=O)(=O)c1ccc(-c2cc(CCC(=O)O)ccc2F)cc1C(F)(F)F [Exp. 5-18, (R)-3-(4′-(N-(3-(1-(2,3-dihydro-1H-inden-2-yl)-2-methylpropan-2-ylamino)-2-hydroxypropyl)-N-methylsulfamoyl)-6-fluoro-3′-(trifluoromethyl)biphenyl-3-yl)propionic acid]
≤ 300 | CCc1cc(-c2cc(CCC(=O)O)ccc2F)ccc1S(=O)(=O)N(C)C[C@H](O)CNC(C)(C)CC1Cc2ccccc2C1 [Exp. 5-21, (R)-3-(4′-(N-(3-(1-(2,3-dihydro-1H-inden-2-yl)-2-methylpropan-2-ylamino)-2-hydroxypropyl)-N-methylsulfamoyl)-3′-ethyl-6-fluorobiphenyl-3-yl)propionic acid]
≤ 300 | CN(C[C@H](O)CNC(C)(C)CC1Cc2ccccc2C1)S(=O)(=O)c1ccc(-c2cc(CCC(=O)O)ccc2F)c(F)c1 [Exp. 5-23, (R)-3-(4′-(N-(3-(1-(2,3-dihydro-1H-inden-2-yl)-2-methylpropan-2-ylamino)-2-hydroxypropyl)-N-methylsulfamoyl)-2′,6-difluorobiphenyl-3-yl)propionic acid]
≤ 300 | COc1ccc(-c2cc(S(=O)(=O)N(C)C[C@H](O)CNC(C)(C)CC3Cc4ccccc4C3)sc2Cl)cc1CCC(=O)O [Exp. 5-29, (R)-3-(5-(2-chloro-5-(N-(3-(1-(2,3-dihydro-1H-inden-2-yl)-2-methylpropan-2-ylamino)-2-hydroxypropyl)-N-methylsulfamoyl)thiophen-3-yl)-2-methoxyphenyl)propionic acid]
≤ 300 | CCc1cc(-c2ccc(OC)c(CCC(=O)O)c2)ccc1S(=O)(=O)N(C)C[C@H](O)CNC(C)(C)CCCc1ccccc1 [Exp. 5-30, (R)-3-(3′-ethyl-4′-(N-(2-hydroxy-3-(2-methyl-5-phenylpentan-2-ylamino)propyl)-N-methylsulfamoyl)-4-methoxybiphenyl-3-yl)propionic acid]
≤ 300 | CCc1cc(-c2ccc(CCC(=O)O)c(F)c2)ccc1S(=O)(=O)N(C)C[C@H](O)CNC(C)(C)CC1Cc2ccccc2C1 [Exp. 5-58, (R)-3-(4′-(N-(3-(1-(2,3-dihydro-1H-inden-2-yl)-2-methylpropan-2-ylamino)-2-hydroxypropyl)-N-methylsulfamoyl)-3′-ethyl-3-fluorobiphenyl-4-yl)propionic acid]

The remaining lines, values behind:

SMILES | IC50 [nM]
Cc1cc(S(=O)(=O)N(C)C[C@H](O)CNC(C)(C)CC2Cc3ccccc3C2)ccc1-c1cccc(CCC(=O)O)c1 [Exp. 3-178, (R)-3-(4′-(N-(3-(1-(2,3-dihydro-1H-inden-2-yl)-2-methylpropan-2-ylamino)-2-hydroxypropyl)-N-methylsulfamoyl) 2′-methylbiphenyl-3-yl)propionic acid] | ≤ 300
CN(C[C@H](O)CNC(C)(C)CC1Cc2ccccc2C1)S(=O)(=O)c1cc(F)c(-c2cccc(CCC(=O)O)c2)cc1F [Exp. 3-180, (R)-3-(4′-(N-(3-(1-(2,3-dihydro-1H-inden-2-yl)-2-methylpropan-2-ylamino)-2-hydroxypropyl)-N-methylsulfamoyl)-2′,5′-difluorobiphenyl-3-yl)propionic acid] | ≤ 300
CN(C[C@H](O)CNC(C)(C)CCCc1ccccc1)S(=O)(=O)c1ccc(-c2cccc(CCC(=O)O)c2)c(Cl)c1 [Exp. 3-185, (R)-3-(2′-chloro-4′-(N-(2-hydroxy-3-(2-methyl-5-phenylpentan-2-ylamino)propyl)-N-methylsulfamoyl)biphenyl-3-yl)propionic acid] | ≤ 300
CCc1cc(-c2cccc(CCC(=O)O)c2)ccc1S(=O)(=O)N(C)C[C@H](O)CNC(C)(C)CCCc1ccccc1 [Exp. 3-187, (R)-3-(3′-ethyl-4′-(N-(2-hydroxy-3-(2-methyl-5-phenylpentan-2-ylamino)propyl)-N-methylsulfamoyl)biphenyl-3-yl)propionic acid] | ≤ 300
CN(C[C@H](O)CNC(C)(C)CC1Cc2ccccc2C1)S(=O)(=O)c1cc(-c2ccc(F)c(C(=O)O)c2)cc(C(F)(F)F)c1 [Exp. 3-193, (R)-3′-(N-(3-(1-(2,3-dihydro-1H-inden-2-yl)-2-methylpropan-2-ylamino)-2-hydroxypropyl)-N-methylsulfamoyl)-4-fluoro-5′-(trifluoromethyl)biphenyl-3-carboxylic acid] | ≤ 300
Cc1cc(-c2cc(C(F)(F)F)cc(S(=O)(=O)N(C)C[C@H](O)CNC(C)(C)CC3Cc4ccccc4C3)c2)ccc1C(=O)O [Exp. 3-197, (R)-3′-(N-(3-(1-(2,3-dihydro-1H-inden-2-yl)-2-methylpropan-2-ylamino)-2-hydroxypropyl)-N-methylsulfamoyl)-3-methyl-5′-(trifluoromethyl)biphenyl-4-carboxylic acid] | ≤ 300
CN(C[C@H](O)CNC(C)(C)CC1Cc2ccccc2C1)S(=O)(=O)c1cccc(-c2cccc(C(=O)O)c2F)c1 [Exp. 3-201, (R)-3′-(N-(3-(1-(2,3-dihydro-1H-inden-2-yl)-2-methylpropan-2-ylamino)-2-hydroxypropyl)-N-methylsulfamoyl)-2-fluorobiphenyl-3-carboxylic acid] | ≤ 300
CN(C[C@H](O)CNC(C)(C)CC1Cc2ccccc2C1)S(=O)(=O)c1ccc(-c2ccc(C(=O)O)c(Cl)c2)cc1C(F)(F)F [Exp. 3-213, (R)-3-chloro-4′-(N-(3-(1-(2,3-dihydro-1H-inden-2-yl)-2-methylpropan-2-ylamino)-2-hydroxypropyl)-N-methylsulfamoyl)-3′-(trifluoromethyl)biphenyl-4-carboxylic acid] | ≤ 300
Cc1cc(C(=O)O)ccc1-c1cccc(S(=O)(=O)N(C)C[C@H](O)CNC(C)(C)CC2Cc3ccccc3C2)c1 [Exp. 3-220, (R)-3′-(N-(3-(1-(2,3-dihydro-1H-inden-2-yl)-2-methylpropan-2-ylamino)-2-hydroxypropyl)-N-methylsulfamoyl)-2-methylbiphenyl-4-carboxylic acid] | ≤ 300
CN(C[C@H](O)CNC(C)(C)CC1Cc2ccccc2C1)S(=O)(=O)c1cccc(-c2ccc(OCC(=O)O)c(Cl)c2)c1 [Exp. 3-223, (R)-2-(3-chloro-3′-(N-(3-(1-(2,3-dihydro-1H-inden-2-yl)-2-methylpropan-2-ylamino)-2-hydroxypropyl)-N-methylsulfamoyl)biphenyl-4-yloxy)acetic acid] | ≤ 300
CN(C[C@H](O)CNC(C)(C)CC1Cc2ccccc2C1)S(=O)(=O)c1cccc(-c2c(Cl)cc(C(=O)O)cc2Cl)c1 [Exp. 3-228, (R)-2,6-dichloro-3′-(N-(3-(1-(2,3-dihydro-1H-inden-2-yl)-2-methylpropan-2-ylamino)-2-hydroxypropyl)-N-methylsulfamoyl)biphenyl-4-carboxylic acid] | ≤ 300
CN(C[C@H](O)CNC(C)(C)CC1Cc2ccccc2C1)S(=O)(=O)c1ccc(-c2ccc(C(=O)O)nc2)c(C(F)(F)F)c1 [Exp. 3-231, (R)-5-(4-(N-(3-(1-(2,3-dihydro-1H-inden-2-yl)-2-methylpropan-2-ylamino)-2-hydroxypropyl)-N-methylsulfamoyl)-2-(trifluoromethyl)phenyl)picolinic acid] | ≤ 300
